The values that follow come from patent US5597829A, “Lactone stable formulation of camptothecin and methods for uses thereof” (priority 1994, dated 1997).

The conditions of data set [1]: cited from earlier work.
The conditions of data set [2]: cited from earlier work. The source holds these as a separate data set.
The test system of data set [3] is xenografts of human tumors. The note with it: nude mice; cited from earlier work.
The conditions of data set [4]: mice; cited from earlier work.
The conditions of data set [5]: cited from earlier work. The source holds these as a separate data set.
Data set [6] is described as follows: Phase I pharmacokinetics: conversion of CPT-11 into HECPT. It counts as in vivo, human. Conditions: per/mg basis, from mean peak plasma concentrations.
The conditions of data set [7]: cited from earlier work. This is another data set of the same source.
The next data set has as its system LD1210 leukemia. The note with it: 10-100 mg/kg intraperitoneally; cited from earlier work.
Data set [8] concerns topoisomerase I in P388 cells. Conditions: cited from earlier work.
The subject of another data set is P388 tumor. The note with it: intermittent bolus (days 1, 5, and 9), i.p.; cited from earlier work.
A further data set relates to MOLT3 cells. Conditions: cited from earlier work.
The conditions of data set [9]: similar solutions; cited from earlier work.
Setting [10] is: Masuda et al, refractory or relapsed small cell lung cancer, 100 mg/m^2 weekly.
Where [11] appears, read: Negoro et al, small cell lung cancer, 100 mg/m^2 weekly, 41 pts.
[12] abbreviates: Shimada et al, colon cancer, 100 mg/m^2 /week or 150 mg/m^2 /Q 2 wks.
Setting [13] is: Takeuchi et al, cervical cancer, 69 pts.

“Also recorded” adds a separate entry of the source. Like-named read-outs stand apart in the source and are kept apart here.

For the compound `CCc1c2c(nc3ccc(OC(=O)N4CCC(N5CCCCC5)CC4)cc13)-c1cc3c(c(=O)n1C2)COC(=O)[C@]3(O)CC` [CPT-11, 7-Ethyl-10-[4-(1-piperidino)-1-piperidino]Carbonyloxy-Camptothecin], the “Fractional amount of lactone species, CpMax based” value in data set [1] (single dose I.V., 50 mg/m^2) was 0.51; in [1] (single dose I.V., 80 mg/m^2), 0.44; in data set [1] (single dose I.V., 100 mg/m^2) it was 0.53; in data set [1] (single dose I.V., 125 mg/m^2), 0.55; in data set [1] (single dose I.V., 150 mg/m^2), 0.42; in data set [1] (single dose I.V., 180 mg/m^2), 0.42. Moreover, in [1] (single dose I.V.), the “overall fractional concentration of the lactone species over dose range” value is recorded as “fairly constant”. In addition, the “conversion of CPT-11 to HECPT” value in data set [2] (5-day continuous intravenous infusion) is recorded as “saturable process”. Also, in data set [3], the “dependence of tumor sensitivity on ability to produce HECPT” value was “independent of their ability to produce HECPT”. Besides, in [4], the “plasma concentration of HECPT after CPT-11 compared to after HECPT” value was “maintained longer after CPT-11 administration than after treatment with HECPT”. For the same compound, the “Toxicity (* dose limiting)” value in [5] (Clavel et al, 90 min QDx3 Q21 days, 115 mg/m^2 /d (33-115), 37 pts) was “Neutropenia*; also recorded: diarrhea; also recorded: nausea; also recorded: vomiting; also recorded: alopecia”; in [5] (Culine et al, 90 min Q21 days, 150 mg/m^2 /wk (50-150), 59 pts), “Neutropenia*; also recorded: diarrhea*; also recorded: vomiting; also recorded: alopecia; also recorded: fatigue; also recorded: stomatitis”; in data set [5] (Negoro et al, 30 min infusion weekly, 100 mg/m^2 (50-150), 17 pts), “Neutropenia* and Diarrhea* and N/V and alopecia and liver”; in data set [5] (Ohe et al, 120 hr CI Q3 wks, 40 mg/m^2 /d (5-40), 36 pts), “Diarrhea*; also recorded: nausea; also recorded: vomiting; also recorded: thrombocytopenia; also recorded: anemia; also recorded: liver”; in data set [5] (Rothenberg et al, QWx4 Q42 days, 180 mg/m^2 /wk (50-180), 32 pts) it was “Diarrhea*; also recorded: Neutropenia; also recorded: nausea; also recorded: vomiting; also recorded: alopecia”; in data set [5] (Rowinsky et al, 90 min infusion Q21 day, 240 mg/m^2 (100-345), 32 pts) it was “Neutropenia* and vomiting and diarrhea and abd. and flushing”. For the same compound, the “partial responses (PR)” value was 1 PR in data set [5] (Clavel et al, Breast, 37 pts); 1 PR in data set [5] (Clavel et al, Mesothelioma, 37 pts); 1 PR in data set [5] (Culine et al, cervix, 59 pts); 1 PR in data set [5] (Culine et al, esophagus, 59 pts); 1 PR in [5] (Culine et al, ovarian, 59 pts); 1 PR in data set [5] (Culine et al, renal, 59 pts). Moreover, the “partial responses (PR)” value in [5] (Negoro et al, NS CLC, 17 pts) is 2 PRs; in [5] (Rothenberg et al, Colon Ca, 32 pts) it was 2 PRs; in data set [5] (Rowinsky et al, Cervix Ca, 32 pts) it was 1 PR; in data set [5] (Rowinsky et al, Colon Cancer, 32 pts), 1 PR. The “responses by tumor type” value in [5] (Ohe et al, 36 pts) is recorded as “None”. Also, the “major reported, dose-limiting toxicities” value in data set [5] (Phase I and Phase II trials) is “Neutropenia and diarrhea”. Moreover, the “administered CPT-11 converted into HECPT” value in data set [6] is given as 1.5% to 9. In addition, the partial responses in [7] (Fukuoka et al, untreated non small cell lung cancer, 100 mg/m^2) is reported as 23/72; in [7] (setting [10]), 7/15; in data set [7] (setting [11]), 7 PRs; in data set [7] (setting [12]) it was 6/17; in [7] (setting [13]), 8 PR. The “Response Rate” value in [7] (setting [10]) is given as 47%; in data set [7] (setting [11]), 33.3%; in data set [7] (Ohno et al, leukemia/lymphoma, 20 mg/m^2 bid x7), 25 % RR; in data set [7] (setting [12]), 46%. In addition, the complete responses is 2 CRs in data set [7] (setting [11]) and “SCR” in [7] (setting [13]). Moreover, the N/V in [7] (Negoro et al, small cell lung cancer) was 61.5%; in data set [7] (Shimada et al, 17 pts) it was 35%; in [7] (Takeuchi et al, cervical cancer), 51%. Besides, the Gastrointestinal toxicity in data set [7] (Ohno et al, 62 pts) is on record as 76%. For the same compound, in [7] (Ohno et al, 62 pts), the “Reported Toxicities” value is recorded as “Thrombocytopenia”. For the same compound, the partial response rate in data set [7] (Ohno et al, leukemia/lymphoma, 40 mg/m^2 Q0x5) was 34 % PR. The Response result in data set [7] (Ohno et al, leukemia/lymphoma, 200 mg Q3) is “No resp”. The “Response Rate (RR)” value in [7] (setting [13]) is 23.6%. The Alopecia in data set [7] (in vivo) is 38.1%. In [7] (in vivo), the Diarrhea was 39.1%. The alopecia in data set [7] (in vivo) was 40.0%. The pneumonitis in [7] (in vivo) is 12.5.
With `CCc1c2c(nc3ccccc13)-c1cc3c(c(=O)n1C2)COC(=O)[C@]3(O)CC` [ECPT, 7-ethyl camptothecin], in the data set with LD1210 leukemia, the “T/C (treated/control) ratios” value was “inferior to that of CPT-11 administration under the same conditions”.
With `CCc1c2c(nc3ccc(O)cc13)-c1cc3c(c(=O)n1C2)COC(=O)[C@]3(O)CC` [HECPT, 10-hydroxy 7-ethyl camptothecin], the “overall fractional concentration of the lactone species over dose range” value in data set [1] (in vivo, iv) is recorded as “fairly constant”. Further, in data set [2] (human subjects), the “correlation of HECPT pharmacokinetics with dose or of CPT-11 pharmacokinetics with toxicity” value was “lack of correlation”. Also, in data set [8], the “greater inhibitory activity than CPT-11 against topoisomerase I” value was 3600 fold. The “T/C (treated/control) ratios” value with LD1210 leukemia is on record as “inferior to that of CPT-11 administration under the same conditions”. Further, in the data set with P388 tumor, the “anti-tumor activity compared to CPT-11” value is recorded as “little anti-tumor activity compared to CPT-11”. For the same compound, the “more potent than CPT-11 in generating single-strand DNA breaks” value with MOLT3 cells is listed as “approximately 1000 fold”.
Turning to `COc1cc([C@@H]2c3cc4c(cc3[C@@H](O[C@@H]3O[C@@H]5CO[C@@H](C)O[C@H]5[C@H](O)[C@H]3O)[C@H]3COC(=O)[C@H]23)OCO4)cc(OC)c1O` [etoposide], the “bioavailability following oral administration relative to intravenous” value in data set [9] was “substantially equivalent”.
